Data published in patent US9744186B2 (priority 2012, dated 2017).

Columns and labels:
[1] = in vitro
Procedure: Plating Cells: The Huh7 cell line was passaged when it was at about 70% confluency. The cells were counted using a hemocytometer, followed by dilution of the cells to 0.5×10^5 cells per mL in DMEM+10% FBS. The cells were plated at 100 μL (5,000 cells) per well in a clear 96-well plate. The cells were allowed to attach for 24 hours at 37° C.
Treating the cells: The media (DMEM media without phenol red+2% FBS media) was pre-warmed to 37° C. […] This provided a final DMSO concentration of 0.5%. The 100 mM stock of 3,5-dichlorobenzoic acid was diluted in DMEM without phenol red+2% FBS to a concentration of 0.5 mM. The working 0.5 mM diluted test drugs were serially diluted in DMEM without phenol red+2% FBS+0.5% DMSO in order to maintain a constant concentration of DMSO in each condition. The 96-well plate was removed from the 37° C. incubator, and the media on the plate was replaced with media containing diluted test drug.
(§1) MTS Assay: The reagents from CellTiter 96 kit (Promega Corporation, Madison, Wis.) were thawed at room temperature in the dark for 1 h. The 96-well plate was removed from the 37° C. incubator at 48 h after drug treatment. 20 μL of the combined MTS/PMS reagent to each well of the plate, mixed, and the plate returned to 37° C. The absorbance of each well at 490 nm and 650 nm was determined using the Flexstation 3 microplate reader in endpoint mode every hour for 3 h. The solutions in the wells were mixed prior to each reading. The data were fit to the Emax model: y=(Emax*x)/(TC50+x), where Emax is the maximum inhibition and TC50 is the inhibitory dose 50%. Alternatively, the data can be fit to the Emax sigmoidal model: y=(Emax*x^slope)/(TC50^slope+x^slope), where slope is the Hill Slope.

[2] = Compound solubility in media; assay type: physicochemical; conditions: DMEM+2% FBS cell culture media, 37 °C, plasma or biological fluid, kinetic from dmso stock; DMEM+2% FBS media
Procedure: Treating the cells: Media (DMEM+2% FBS) was pre-warmed to 37° C. […] The 96-well plate was removed from the 37° C. incubator, and the media replaced on the plate with the serial dilutions of the test drug. The plate was then returned to 37° C. for 48 h.

[3] = TC50 MTS assay with human cancer cell lines: Huh7; assay type: cell-based; conditions: human, Huh7 cells; 96 h drug treatment
Procedure: Plating Cells: The Huh7, HEPG2, HEK293, MCF-7, PK9, RPK9, or BxPC3 cells were passaged when they were about 70% confluent. The cells were counted using a hemocytometer, and then diluted cells to 0.5×10^5 cells per mL in DMEM+10% FBS. 100 µL of the cells (5,000 cells) were plated per well in a clear 96-well plate. The cells were allowed to attach for 24 hours at 37° C.
Treating the cells: Pre-warm the DMEM media without phenol red+2% FBS media to 37° C. […] This will bring the final DMSO concentration to 0.5%. Use these 0.5 mM dilutions to further serially the drugs in DMEM without phenol red+2% FBS+0.5% DMSO. This will keep the concentration of DMSO in each condition identical. Remove the 96-well plate from the 37° C. incubator. Replace the media on the plate with the dilutions of the drugs. Stagger these treatments by 1 h and write the treatment time on each set of plates. Return to 37° C. for 48 h or 96 h as indicated.
as §1, with “Fit Data” for “The data were fit”, “Alternatively, fit” for “Alternatively,”, “data” for “data can be fit”
Each TC50 was the average value of three measurements as described herein. […] The RPK9 cells are deficient in deoxycytidine kinase (“dCK”) activity, an enzyme required for the initial phosphorylation of dFdC to dFdCMP (see FIG. 2).

[4] = Stability test of HPLC-purified gemcitabine analogs at different pH conditions; assay type: physicochemical; conditions: 200 μM
Procedure: The solution was then incubated for 4 hours at 40° C. [table] HPLC analysis: 100 μl of the incubated solution was loaded onto the Vydac C18 analytical column 4.6/250 at 1 ml/min water with the following procedures: a. Inject 100 μl the incubated solution; b. Water for 5 minutes at 1 ml/min; c. 0-100% methanol over 30 minutes; d. Back to 20% methanol. Analysis: The standard HPLC analysis software was used to quantitate the area under each peak. Degradation peaks are quantitated as a percentage of the peak of the same amount of control sample (no heat treatment).

[5] = tested on: HCV luciferase replicon; assay: Reversal of anti-HCV activity by exogenous nucleosides; assay type: cell-based, hepatitis C virus (HCV); conditions: drug 1000, 100 or 25 nM; 50 μM cytidine or 2′-deoxycitidine; 48 h
Procedure: After 48 hours, the cells were lysed, and the total luciferase activity was determined. […] Where indicated, either 50 μM cytidine (C) or 50 μM 2′-deoxycitidine (dC) was also included.
The cells were plated, incubated with drug, and luciferase activity assayed essentially as described herein above. The incubation with drug was for 48 h.

[6] = Pretreatment (control sample, no heat treatment)

SMILES | CC50 at 48 h [1] | solubility [2] | CC50 at 96 h [3] | % remaining [4, 6] | % remaining ([4]; pH 1, 4 hours at 40° C.) | % remaining ([4]; pH 2, 4 hours at 40° C.) | % remaining ([4]; pH 4, 4 hours at 40° C.) | % remaining ([4]; pH 6, 4 hours at 40° C.) | % remaining ([4]; pH 8, 4 hours at 40° C.) | reversal of the inhibition of the HCV luciferase replicon by deoxycytidine and cytidine [5]
COc1cc(C(=O)Nc2ccn([C@@H]3O[C@H](CO)[C@@H](O)C3(F)F)c(=O)n2)cc(OC)c1OC [GTB, N^4-(3,4,5-Trimethoxybenzoyl)gemcitabine] | 495 ± 97 µM | > 500 µM | 5.05 ± 1.22 µM | 100% | 86% | 87% | 98.6% | 99.5% | 82.7% | reversal
O=C(Nc1ccn([C@@H]2O[C@H](CO)[C@@H](O)C2(F)F)c(=O)n1)c1cc(Cl)cc(Cl)c1 [GCB, N^4-(3,5-Dichlorobenzoyl)gemcitabine] | 110 ± 36 µM | < 500 µM | 4.17 ± 1.06 µM | 100% | 35% | 82% | 98.4% | 99.6% | 35.4% | reversal
